Data reported in ChEMBL document CHEMBL1201862, “PubChem BioAssay data set” (2004).
Active and inactive are the calls of the source.

Assays:
Cytochrome P450 1A2 = target: T1, Cytochrome P450 1A2 (Homo sapiens, UniProt P05177);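 also: PubChem cytochrome P450 panel assay, CYP1A2 panel member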
T1 sequence (P05177 whole entry): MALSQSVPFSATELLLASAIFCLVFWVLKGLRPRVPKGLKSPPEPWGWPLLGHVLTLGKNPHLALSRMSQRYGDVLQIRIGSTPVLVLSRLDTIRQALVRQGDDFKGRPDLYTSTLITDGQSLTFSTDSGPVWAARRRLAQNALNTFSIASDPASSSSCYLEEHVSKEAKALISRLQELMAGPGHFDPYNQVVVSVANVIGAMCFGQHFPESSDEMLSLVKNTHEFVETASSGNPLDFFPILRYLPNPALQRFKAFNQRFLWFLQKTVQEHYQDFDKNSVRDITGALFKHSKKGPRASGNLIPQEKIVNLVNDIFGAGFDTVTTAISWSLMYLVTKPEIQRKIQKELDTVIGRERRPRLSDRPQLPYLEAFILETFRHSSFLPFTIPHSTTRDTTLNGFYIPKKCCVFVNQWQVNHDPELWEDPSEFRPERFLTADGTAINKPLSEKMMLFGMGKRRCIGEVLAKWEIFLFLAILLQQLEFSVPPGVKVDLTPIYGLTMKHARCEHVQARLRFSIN

[1] = target: T2, Heat shock factor protein 1 (Mus musculus, UniProt P38532); experiment: inhibition of MG132-induced HSE-luciferase signal, confirmation, cell-based, NIH3T3, luminescence, dose retest (AID 2382); type: functional;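 also: NIH3T3 fibroblasts with HSF1-driven luciferase reporter stressed by proteasome inhibitor MG132; luminescence from HSF1-driven luciferase expression after 8 hours of MG132 stress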
T2 sequence (P38532 whole entry): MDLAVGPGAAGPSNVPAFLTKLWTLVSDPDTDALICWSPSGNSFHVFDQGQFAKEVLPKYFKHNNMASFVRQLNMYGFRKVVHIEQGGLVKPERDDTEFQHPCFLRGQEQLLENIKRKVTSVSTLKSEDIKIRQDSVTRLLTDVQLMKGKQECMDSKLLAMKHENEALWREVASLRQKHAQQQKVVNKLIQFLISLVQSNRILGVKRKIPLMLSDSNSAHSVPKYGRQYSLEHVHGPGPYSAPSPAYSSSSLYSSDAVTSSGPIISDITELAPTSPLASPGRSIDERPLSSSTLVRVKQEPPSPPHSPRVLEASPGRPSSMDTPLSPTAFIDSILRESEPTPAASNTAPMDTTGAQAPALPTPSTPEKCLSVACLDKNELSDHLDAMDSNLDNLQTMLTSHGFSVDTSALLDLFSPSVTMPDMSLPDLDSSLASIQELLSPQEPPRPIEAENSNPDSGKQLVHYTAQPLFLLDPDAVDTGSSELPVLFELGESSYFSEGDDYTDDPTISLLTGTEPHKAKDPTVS

Cytochrome P450 3A4 = Cytochrome P450 3A4 (Homo sapiens, UniProt P08684);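 also: CYP3A4 tested as one member of a cytochrome P450 panel screen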
Sequence of Cytochrome P450 3A4 (P08684 whole entry): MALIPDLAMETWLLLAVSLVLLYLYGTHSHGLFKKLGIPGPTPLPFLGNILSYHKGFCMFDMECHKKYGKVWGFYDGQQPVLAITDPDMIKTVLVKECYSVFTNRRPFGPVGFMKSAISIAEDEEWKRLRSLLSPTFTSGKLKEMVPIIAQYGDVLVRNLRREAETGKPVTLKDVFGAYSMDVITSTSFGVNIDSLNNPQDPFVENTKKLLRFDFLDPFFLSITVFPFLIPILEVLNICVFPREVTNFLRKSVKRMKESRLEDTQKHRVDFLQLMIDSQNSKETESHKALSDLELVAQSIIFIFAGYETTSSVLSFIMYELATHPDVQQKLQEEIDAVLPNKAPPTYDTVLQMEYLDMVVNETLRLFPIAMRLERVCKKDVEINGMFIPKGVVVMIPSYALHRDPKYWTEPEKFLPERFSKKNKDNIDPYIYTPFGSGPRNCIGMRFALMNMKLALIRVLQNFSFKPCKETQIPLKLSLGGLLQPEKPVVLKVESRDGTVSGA

Cytochrome P450 2C9 = Cytochrome P450 2C9 (Homo sapiens, UniProt P11712)
Sequence of Cytochrome P450 2C9 (P11712 whole entry): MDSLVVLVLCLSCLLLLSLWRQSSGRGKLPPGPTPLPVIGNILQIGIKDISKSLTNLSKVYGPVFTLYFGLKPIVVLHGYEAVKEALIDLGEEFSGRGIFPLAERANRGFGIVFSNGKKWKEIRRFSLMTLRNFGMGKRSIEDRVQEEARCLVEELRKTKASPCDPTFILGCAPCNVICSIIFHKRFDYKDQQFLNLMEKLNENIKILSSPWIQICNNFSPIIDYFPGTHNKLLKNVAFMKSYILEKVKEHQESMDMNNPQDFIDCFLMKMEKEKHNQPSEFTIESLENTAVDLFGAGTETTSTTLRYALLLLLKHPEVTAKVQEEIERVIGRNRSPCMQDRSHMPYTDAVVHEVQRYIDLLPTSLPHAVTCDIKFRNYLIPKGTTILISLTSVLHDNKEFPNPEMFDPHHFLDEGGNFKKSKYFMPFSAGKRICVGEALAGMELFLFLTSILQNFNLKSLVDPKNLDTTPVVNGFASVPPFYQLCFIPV

[2] = target: T3, Corticotropin-releasing factor receptor 2/Corticotropin-releasing factor-binding protein (Homo sapiens, UniProt P24387+Q13324); experiment: Dose Response confirmation of uHTS hits for small molecule antagonists of the CRF-binding protein and CRF-R2 receptor complex.; type: functional; details: read-out: IC50_Mean
T3 sequence (Q13324 whole entry): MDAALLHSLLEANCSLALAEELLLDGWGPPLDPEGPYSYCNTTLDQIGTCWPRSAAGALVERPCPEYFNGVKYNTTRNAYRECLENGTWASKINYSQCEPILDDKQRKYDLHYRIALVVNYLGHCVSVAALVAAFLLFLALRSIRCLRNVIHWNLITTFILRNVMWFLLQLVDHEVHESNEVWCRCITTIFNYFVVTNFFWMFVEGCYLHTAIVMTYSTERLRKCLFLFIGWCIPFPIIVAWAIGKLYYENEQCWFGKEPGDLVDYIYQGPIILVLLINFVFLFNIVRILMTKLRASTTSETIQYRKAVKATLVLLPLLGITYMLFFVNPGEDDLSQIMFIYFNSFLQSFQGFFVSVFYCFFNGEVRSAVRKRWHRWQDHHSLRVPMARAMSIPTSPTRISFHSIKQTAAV
T3 sequence (P24387 whole entry): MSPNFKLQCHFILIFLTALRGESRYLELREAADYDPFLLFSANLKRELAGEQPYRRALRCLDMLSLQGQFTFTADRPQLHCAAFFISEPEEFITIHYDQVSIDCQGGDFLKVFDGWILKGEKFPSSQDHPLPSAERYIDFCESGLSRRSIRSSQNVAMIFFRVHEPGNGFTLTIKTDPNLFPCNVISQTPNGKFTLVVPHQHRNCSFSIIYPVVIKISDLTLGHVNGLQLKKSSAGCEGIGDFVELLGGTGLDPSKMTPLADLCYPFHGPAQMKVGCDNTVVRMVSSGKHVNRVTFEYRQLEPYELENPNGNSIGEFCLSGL

[3] = target: T3, Corticotropin-releasing factor receptor 2/Corticotropin-releasing factor-binding protein; experiment: activators of CRF receptor 2 with binding protein – uHTS hits, confirmation (AID 602473); type: functional; details: read-out: EC50_Mean
[4] = HEp-2 cell cytotoxicity, dose response, cytotoxicity control for RSV inhibitor project, HTS (AID 2410); type: functional; details: human respiratory syncytial virus
H4 = experiment: Luminescence Cell-Based Dose Response HTS to Identify Activators of 5'UTR Stem-Loop Driven Prion Protein mRNA Translation in H4 Neuroglioblastoma Cells. [Related pubchem assays: 1829 (Project Summary), 1814 (Primary HTS)]; type: functional; details: Homo sapiens
[5] = system: Streptococcus sp. 'group A'; experiment: growth inhibition of control SK(-) GAS strain, dose response, counter-screen for streptokinase expression inhibitor project, luminescence, kanamycin, BacTiterGlo, confirmation (AID 1900); type: functional, organism-based
Streptokinase A = target: T4, Streptokinase A (Streptococcus pyogenes serotype M1, UniProt P10520); experiment: S. pyogenes streptokinase expression inhibitors, potency, dose response, plasminogen activation absorbance, OD405 (AID 1914); type: functional, Streptococcus pyogenes M1 GAS;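 also: secreted streptokinase activity via plasminogen activation per viability signal from cell pellet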
T4 sequence (P10520 whole entry): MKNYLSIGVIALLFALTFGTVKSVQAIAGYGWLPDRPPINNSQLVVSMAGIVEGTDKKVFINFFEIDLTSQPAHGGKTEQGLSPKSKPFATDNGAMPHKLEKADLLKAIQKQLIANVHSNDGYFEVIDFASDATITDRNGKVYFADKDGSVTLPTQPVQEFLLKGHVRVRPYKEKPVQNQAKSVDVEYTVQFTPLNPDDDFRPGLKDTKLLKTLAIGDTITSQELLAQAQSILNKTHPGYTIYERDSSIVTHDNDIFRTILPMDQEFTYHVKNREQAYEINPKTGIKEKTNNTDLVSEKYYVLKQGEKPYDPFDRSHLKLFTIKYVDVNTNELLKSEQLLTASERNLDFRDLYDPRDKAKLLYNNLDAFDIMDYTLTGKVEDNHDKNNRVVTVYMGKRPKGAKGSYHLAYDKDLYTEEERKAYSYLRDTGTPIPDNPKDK

Streptococcus = experiment: Group A Streptococcus viability loss, dose response, counter-screen for streptokinase expression inhibitor project, luminescence, BacTiterGlo (AID 1915); type: functional, organism-based;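 also: potency for reduction of bacterial viability or growth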
Paired box protein Pax-8 = Paired box protein Pax-8 (Homo sapiens, UniProt Q06710); experiment: inhibitors of PAX8-driven TPO luciferase reporter, dose response, RMG-I cells, cherry-pick (AID 687027); type: functional, cell-based;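 also: luciferase reporter driven by Pax8 target thyroperoxidase promoter measured by SteadyGlo luminescence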
Sequence of Paired box protein Pax-8 (Q06710 whole entry): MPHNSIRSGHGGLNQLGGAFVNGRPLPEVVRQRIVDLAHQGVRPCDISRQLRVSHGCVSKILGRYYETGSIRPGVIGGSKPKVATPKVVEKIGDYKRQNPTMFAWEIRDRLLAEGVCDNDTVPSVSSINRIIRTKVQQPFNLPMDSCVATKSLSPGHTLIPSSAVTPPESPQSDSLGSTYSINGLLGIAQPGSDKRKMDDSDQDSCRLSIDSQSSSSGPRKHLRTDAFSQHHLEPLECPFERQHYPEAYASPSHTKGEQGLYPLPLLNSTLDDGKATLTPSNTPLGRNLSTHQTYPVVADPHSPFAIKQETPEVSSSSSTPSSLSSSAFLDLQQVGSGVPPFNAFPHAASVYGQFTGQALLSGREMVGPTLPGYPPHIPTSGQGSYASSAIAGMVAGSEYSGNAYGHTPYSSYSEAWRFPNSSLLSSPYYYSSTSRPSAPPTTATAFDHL

SMILES: Cc1cc(NC(=O)c2cc(C(C)C)on2)no1
- AC50 (Cytochrome P450 1A2): 20 µM (inconclusive)

SMILES: COc1ccc(Br)cc1CNC(=O)CCN1C(=O)COc2ccccc21
- EC50 [1]: > 195 µM (not active)

SMILES: NN=C(S)Nc1ccccc1Cl
- EC50 [1]: > 195 µM (not active)

SMILES: Cn1cc(-c2nc3cnc(Oc4ccccc4)nc3n(C3CC3)c2=O)c2ccccc21
- AC50 (Cytochrome P450 1A2): 5.01 µM (inconclusive)
- AC50 (Cytochrome P450 3A4): 25.1 µM (inconclusive)

SMILES: Cc1nc2cnc(Nc3ccccc3)nc2n(CCc2ccccc2)c1=O
- AC50 (Cytochrome P450 1A2): 2.51 µM (inconclusive)
- AC50 (Cytochrome P450 3A4): 10 µM (inconclusive)

SMILES: COC(=O)N1CCC2(CCN(C(=O)NC(C)C)CC2)CC1
- AC50 (Cytochrome P450 1A2): 20 µM (inconclusive)
- AC50 (Cytochrome P450 2C9): 12.6 µM (inconclusive)

SMILES: COCCN1C(=O)C(O)=C(C(=O)c2cccc(OC)c2)C1c1ccc(C)o1 (stereo not given)
- AC50 (Cytochrome P450 1A2): 12.6 µM (inconclusive)
- AC50 (Cytochrome P450 2C9): 31.6 µM (inconclusive)

SMILES: COc1cc(NC(S)=NCc2ccco2)cc(OC)c1
- IC50 [2]: > 47.1 µM (inactive)
- EC50 [3]: > 53 µM (inactive)

SMILES: CCC(=O)Nc1c2c(nc3c1CCC3)CCCC2
- AC50 (Cytochrome P450 1A2): 15.8 µM (inconclusive)

SMILES: CC(NC(=O)Nc1ccc(Cl)cc1)c1ccc2c(c1)OCO2 (stereo not given)
- CC50 [4]: 39.5 µM (active)

SMILES: Cc1ccc(CNC(=O)/C=C/c2cccs2)cc1
- EC50 (H4): 1.28 µM (active)

SMILES: CCn1c2ccccc2c2cc(NC(=O)C(C)Oc3ccc(OC)cc3)ccc21 (stereo not given)
- CC50 [4]: > 50 µM (active)
- AC50 (Cytochrome P450 2C9): 7.94 µM (inconclusive)

SMILES: COC(=O)c1cc(S(=O)(=O)NCc2ccc(F)cc2)cn1C
- EC50 [1]: > 195 µM (not active)

SMILES: CC1CCc2[nH]c3ccc(C(=O)N(C)CC(=O)Nc4cccc(F)c4)cc3c2C1 (stereo not given)
- IC50 [2]: > 47.1 µM (inactive)
- EC50 [3]: > 53 µM (inactive)

SMILES: Cc1ccc2[nH]c(/C(C#N)=C\c3cc(C)n(-c4cccc([N+](=O)[O-])c4)c3C)nc2c1
- CC50 [4]: 16.6 µM (active)

SMILES: COc1ccccc1C(=O)Nc1nnc(SCC(=O)NCC2CCCO2)s1 (stereo not given)
- EC50 [5]: > 150 µM (not active)
- EC50 (H4): > 120 µM (not active)
- EC50 (Streptokinase A): > 150 µM (not active)
- EC50 (Streptococcus): > 150 µM (not active)

SMILES: COc1ccc(/C=C/C(=O)N(C)CC(=O)Nc2cccc(F)c2)cc1S(=O)(=O)N1CCCCC1
- IC50 [2]: > 47.1 µM (inactive)
- EC50 [3]: > 53 µM (inactive)

SMILES: CCCCCC(=O)N1CC2(CC(c3cccc(NC(=O)CC)c3)=NO2)C[C@H]1C(N)=O (stereo not given in full)
- IC50 [2]: > 47.1 µM (inactive)
- EC50 [3]: > 53 µM (inactive)

SMILES: Cc1cn(CC(=O)N2CCN(c3ccccn3)CC2)c(=O)[nH]c1=O
- IC50 [2]: > 47.1 µM (inactive)
- EC50 [3]: > 53 µM (inactive)

SMILES: COc1cccc(-c2ccc3c(c2)[C@@H]2[C@@H](CCN2S(=O)(=O)c2ccccc2C)[C@H](CO)N3C)c1
- AC50 (Paired box protein Pax-8): 10.4 µM (active)

SMILES: CC(/C=C/c1ccccc1)=N\NC(=O)C1CC1(C)c1ccccc1 (stereo not given)
- CC50 [4]: 32 µM (active)

SMILES: CCOC(=O)n1ccn(C)c1=S [CARBIMAZOLE]
- AC50 (Cytochrome P450 1A2): 12.6 µM (inconclusive)
